Measured values published in US20210261569A1, “FUSED HETEROCYCLIC DERIVATIVES HAVING SELECTIVE BACE1 INHIBITORY ACTIVITY” (Shionogi & Co., Ltd., priority 2018, published 2021).

Assays:
[1] = target: T1, recombinant BACE1 protein (Homo sapiens, UniProt P56817); assay: BACE1 biochemical FRET based assay; conditions: for Selectivity: BACE2 IC50 relative to BACE1 IC50; for IC50: FRET, pH 5.0, 450 min at room temperature
T1 construct: recombinant BACE1 protein in a final concentration of 0.04 μg/mL
Source text: This assay is a Fluorescence Resonance Energy Transfer Assay (FRET) based assay. The substrate for this assay is an APP derived 13 amino acids peptide that contains the ‘Swedish’ Lys-Met/Asn-Leu mutation of the amyloid precursor protein (APP) beta-site secretase cleavage site. This substrate also contains two fluorophores: (7-methoxycoumarin-4-yl) acetic acid (Mca) is a fluorescent donor with excitation wavelength at 320 nm and emission at 405 nm and 2,4-dinitrophenol (Dnp) is a proprietary quencher acceptor. […] Upon cleavage by BACE1, the fluorophore Mca is separated from the quenching group Dnp, restoring the full fluorescence yield of the donor. The increase in fluorescence is linearly related to the rate of proteolysis.
Briefly in a 384-well format recombinant BACE1 protein in a final concentration of 0.04 μg/mL was incubated for 450 minutes at room temperature with 10 μm substrate in incubation buffer (final concentrations: 33.3 mM Citrate buffer pH 5.0, 0.033% PEG, 3% DMSO) in the absence or presence of compound. Next the amount of proteolysis was directly measured by fluorescence measurement at T=0′-120′ and T=450′ (excitation at 320 nm and emission at 405 nm). Results were expressed in RFU (Relative Fluorescence Units), as difference between T450 and Tx (Tx is chosen depending on the reaction speed between 0 and 120 minutes).
A best-fit curve was fitted by a minimum sum of squares method to the plot of % Controlmin versus compound concentration. From this an IC50 value (inhibitory concentration causing 50% inhibition of activity) can be obtained.

Metabolic stability test = assay type: in vitro ADME; conditions: human liver microsomes 0.5 mg protein/mL, NADPH, 37° C.
Experimental: Using a commercially available pooled human liver microsomes, a compound of the present invention was reacted for a constant time, a remaining rate was calculated by comparing a reacted sample and an unreacted sample, thereby, a degree of metabolism in liver was assessed.
A reaction was performed (oxidative reaction) at 37° C. for 0 minute or 30 minutes in the presence of 1 mmol/L NADPH in 0.2 mL of a buffer (50 mmol/L Tris-HCl pH 7.4, 150 mmol/L potassium chloride, 10 mmol/L magnesium chloride) containing 0.5 mg protein/mL of human liver microsomes. After the reaction, 50 μL of the reaction solution was added to 100 μL of a methanol/acetonitrile=1/1 (v/v), mixed and centrifuged at 3000 rpm for 15 minutes. The compound of the present invention in the supernatant was quantified by LC/MS/MS or solid phase extraction (SPE)/MS, and a remaining amount of the compound of the present invention after the reaction was calculated, letting a compound amount at 0 minute reaction time to be 100%.

[2] = target: T2, human ether-a-go-go related gene (hERG) channel (Homo sapiens, UniProt Q12809); assay: hERG test (whole cell patch clamp, QPatch); assay type: cell-based; conditions: CHO cells expressing hERG, tail peak current
T2 construct: expressed in transfected cells; host or cells: CHO cells
T2 sequence (Q12809 whole entry): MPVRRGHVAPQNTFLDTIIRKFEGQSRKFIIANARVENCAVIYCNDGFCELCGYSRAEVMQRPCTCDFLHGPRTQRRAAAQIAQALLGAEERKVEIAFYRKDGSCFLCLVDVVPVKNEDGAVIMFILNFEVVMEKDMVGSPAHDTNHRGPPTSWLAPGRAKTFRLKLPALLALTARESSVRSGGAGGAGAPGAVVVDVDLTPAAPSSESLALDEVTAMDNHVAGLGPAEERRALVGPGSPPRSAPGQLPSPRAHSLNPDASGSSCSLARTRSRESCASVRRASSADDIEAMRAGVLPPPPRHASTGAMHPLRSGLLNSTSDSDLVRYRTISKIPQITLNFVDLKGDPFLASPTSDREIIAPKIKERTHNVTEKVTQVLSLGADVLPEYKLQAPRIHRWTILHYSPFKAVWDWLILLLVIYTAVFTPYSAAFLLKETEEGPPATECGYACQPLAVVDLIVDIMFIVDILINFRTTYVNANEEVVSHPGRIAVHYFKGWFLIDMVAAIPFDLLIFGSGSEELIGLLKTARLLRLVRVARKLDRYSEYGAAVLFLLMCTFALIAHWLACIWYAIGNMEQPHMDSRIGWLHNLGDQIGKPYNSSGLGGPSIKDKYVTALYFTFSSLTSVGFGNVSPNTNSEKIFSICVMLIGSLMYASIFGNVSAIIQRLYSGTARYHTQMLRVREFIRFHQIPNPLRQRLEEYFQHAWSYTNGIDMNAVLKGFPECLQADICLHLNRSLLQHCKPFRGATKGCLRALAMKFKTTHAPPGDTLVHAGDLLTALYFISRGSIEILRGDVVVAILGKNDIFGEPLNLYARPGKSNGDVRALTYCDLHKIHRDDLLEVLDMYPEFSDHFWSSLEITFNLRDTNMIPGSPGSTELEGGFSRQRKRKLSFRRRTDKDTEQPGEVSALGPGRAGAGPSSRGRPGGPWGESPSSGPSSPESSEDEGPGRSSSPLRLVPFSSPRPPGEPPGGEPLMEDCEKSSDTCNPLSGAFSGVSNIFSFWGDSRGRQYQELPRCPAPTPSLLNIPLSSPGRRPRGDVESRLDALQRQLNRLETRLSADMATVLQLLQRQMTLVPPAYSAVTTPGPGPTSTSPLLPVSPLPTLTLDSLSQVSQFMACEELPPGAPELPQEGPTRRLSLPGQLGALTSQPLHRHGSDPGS
Source text: For the purpose of assessing risk of an electrocardiogram QT interval prolongation, effects on delayed rectifier K+ current (IKr), which plays an important role in the ventricular repolarization process of the compound of the present invention, was studied using CHO cells expressing human ether-a-go-go related gene (hERG) channel.
A cell was retained at a membrane potential of −80 mV by whole cell patch clamp method using an automated patch clamp system (QPatch; Sophion Bioscience A/S). After application of leak potential at −50 mV, IKr induced by depolarization pulse stimulation at +20 mV for 2 seconds and, further, repolarization pulse stimulation at −50 mV for 2 seconds was recorded.
After the generated current was stabilized, extracellular solution (NaCl: 145 mmol/L, KCl: 4 mmol/L, CaCl2:2 mmol/L MgCl2:1 mmol/L, 1 mmol/L, HEPES (4-(2-hydroxyethyl)-1-piperazineethanesulfonic acid: 10 mmol/L, glucose:10 mmol/L pH=7.4) in which the compound of the present invention have been dissolved at an objective concentration was applied to the cell under the room temperature condition for 10 minutes. From the recording IKr, an absolute value of the tail peak current was measured based on the current value at the resting membrane potential using an analysis software (QPatch assay software; Sophion Bioscience A/S). Further, the % inhibition relative to the tail peak current before application of the compound of the present invention was calculated, and compared with the vehicle-applied group (0.1% dimethyl sulfoxide solution) to assess influence of the compound of the present invention on IKr.

[3] = target: T3, P-gp (MDR1 expressing LLC-PK1 cells) (Homo sapiens, UniProt P08183); assay: P-gp substrate test; assay type: in vitro ADME; conditions: MDR1 expressing LLC-PK1 cells vs parent LLC-PK1 cells
T3 construct: host or cells: LLC-PK1 (porcine kidney) cells
T3 sequence (P08183 whole entry): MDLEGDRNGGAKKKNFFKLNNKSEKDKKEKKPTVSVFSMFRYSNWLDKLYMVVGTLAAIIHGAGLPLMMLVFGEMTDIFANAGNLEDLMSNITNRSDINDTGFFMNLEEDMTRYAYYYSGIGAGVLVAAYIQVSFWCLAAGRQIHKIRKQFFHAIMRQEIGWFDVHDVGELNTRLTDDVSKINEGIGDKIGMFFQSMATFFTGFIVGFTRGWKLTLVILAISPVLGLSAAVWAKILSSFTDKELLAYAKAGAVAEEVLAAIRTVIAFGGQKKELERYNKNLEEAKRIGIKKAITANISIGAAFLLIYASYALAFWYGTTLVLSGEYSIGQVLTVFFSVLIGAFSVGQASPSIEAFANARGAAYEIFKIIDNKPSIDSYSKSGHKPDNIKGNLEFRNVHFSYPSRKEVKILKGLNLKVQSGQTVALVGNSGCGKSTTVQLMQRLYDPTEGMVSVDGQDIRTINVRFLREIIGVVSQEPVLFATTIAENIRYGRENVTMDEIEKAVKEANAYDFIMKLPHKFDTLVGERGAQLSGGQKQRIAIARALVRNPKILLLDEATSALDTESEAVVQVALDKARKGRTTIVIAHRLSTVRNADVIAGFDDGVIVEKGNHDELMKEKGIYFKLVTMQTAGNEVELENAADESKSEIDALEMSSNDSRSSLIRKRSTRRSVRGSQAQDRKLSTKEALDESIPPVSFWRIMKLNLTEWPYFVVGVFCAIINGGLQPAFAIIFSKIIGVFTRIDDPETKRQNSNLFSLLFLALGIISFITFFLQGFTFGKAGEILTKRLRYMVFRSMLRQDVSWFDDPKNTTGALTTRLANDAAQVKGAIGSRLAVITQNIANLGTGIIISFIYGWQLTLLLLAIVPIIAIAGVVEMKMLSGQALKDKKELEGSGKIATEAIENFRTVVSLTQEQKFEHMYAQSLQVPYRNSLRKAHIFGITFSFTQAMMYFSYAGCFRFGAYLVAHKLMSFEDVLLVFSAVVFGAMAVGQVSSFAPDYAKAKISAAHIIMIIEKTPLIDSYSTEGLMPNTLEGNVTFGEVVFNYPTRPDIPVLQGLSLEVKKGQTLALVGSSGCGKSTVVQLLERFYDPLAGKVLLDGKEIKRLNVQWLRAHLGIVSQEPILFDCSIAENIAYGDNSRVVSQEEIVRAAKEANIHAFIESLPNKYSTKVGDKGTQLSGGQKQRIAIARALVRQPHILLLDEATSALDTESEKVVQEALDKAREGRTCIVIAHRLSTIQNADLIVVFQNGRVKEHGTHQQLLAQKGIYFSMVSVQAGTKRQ
Experimental: 1. MDR1 expressing LLC-PK1 cells and its parent cells were routinely cultured in Medium A (Medium 199 (Invitrogen) supplemented with 10% FBS (Invitrogen), gentamycin (0.05 mg/mL, Invitrogen) and hygromycin B (100 μg/mL, Invitrogen)) at 37° C. under 5% CO2/95% 02 gasses. For the transport experiments, these cells were seeded on Transwell (Registered trademark) insert (96-well, pore size: 0.4 μm, Coaster) at a density of 1.4×10^4 cells/insert and added Medium B (Medium 199 supplemented with 10% FBS and gentamycin at 0.05 mg/mL) to the feeder tray. These cells were incubated in a CO2 incubator (5% CO2/95% 02 gasses, 37° C.) and replace apical and basolateral culture medium every 48-72 hr after seeding. These cells were used between 4 and 6 days after seeding. 2. The medium in the culture insert seeded with MDR1 expressing cells or parent cells were removed by aspiration and rinsed by HBSS. The apical side (140 μL) or basolateral side (175 μL) was replaced with transport buffer containing reference substrates and the present invention and then an aliquot (50 μL) of transport buffer in the donor side was collected to estimate initial concentration of reference substrate and the present invention. After incubation for designed time at 37° C., an aliquot (50 μL) of transport buffer in the donor and receiver side were collected. Assay was performed by duplicate or triplicate. 3. Reference substrate and the present invention in the aliquot was quantified by LC/MS/MS.
Permeated amounts across monolayers of MDR1 expressing and parent cells were determined, and permeation coefficients (Pe) were calculated using Excel 2003 from the following equitation:
Pe (cm/sec)=Permeated amount (pmol)/area of cell membrane (cm^2)/initial concentration (nM)/incubation time (sec) Where, permeated amount was calculated from permeation concentration (nM, concentration of the receiver side) of the substance after incubation for the defined time (sec) multiplied by volume. (mL) and area of cell membrane was used 0.1433 (cm2). The efflux ratio was calculated using the following equation:
Efflux Ratio=Basolateral-to-Apical Pe/Apical-to-Basolateral Pe
The net flux was calculated using the following equation:
Net flux=Efflux Ratio in MDR1 expressing cells/Efflux Ratio in parent cells

T1 sequence (P56817 46-501): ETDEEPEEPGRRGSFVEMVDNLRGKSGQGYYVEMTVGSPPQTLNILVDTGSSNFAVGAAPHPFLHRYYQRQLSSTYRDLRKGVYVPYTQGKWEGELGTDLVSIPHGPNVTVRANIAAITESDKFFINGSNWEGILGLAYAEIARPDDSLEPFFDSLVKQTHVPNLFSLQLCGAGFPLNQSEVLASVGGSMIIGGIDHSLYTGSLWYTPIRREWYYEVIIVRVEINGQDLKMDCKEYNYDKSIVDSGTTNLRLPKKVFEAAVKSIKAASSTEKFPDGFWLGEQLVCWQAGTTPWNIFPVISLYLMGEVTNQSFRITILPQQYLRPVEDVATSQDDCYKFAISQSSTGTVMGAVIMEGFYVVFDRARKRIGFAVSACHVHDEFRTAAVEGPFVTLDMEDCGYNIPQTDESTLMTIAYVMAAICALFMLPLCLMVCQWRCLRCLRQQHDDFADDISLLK

SMILES | Selectivity [1] | IC50 [1] [nM] | Remaining rate (%) at 30 min (Metabolic stability test) [%] | hERG inhibition (%) at 3 μM [2] [%] | P-gp ER ratio [3]
C[C@@H]1OC[C@H]2[C@@H]1OC(N)=N[C@]2(CF)c1cc(NC(=O)c2cnc(OCF)cn2)ccc1F [Compound I-082] | 28 | 11 | 92 | 6.7 | 3.6
NC1=N[C@](CF)(c2cc(NC(=O)c3cnc(OCF)cn3)ccc2F)[C@H]2[C@H](CC(F)F)OC[C@H]2O1 [Compound I-116] | 31 | 13 | 92 | 33.9 | 5.2
